Laboratory results: ChEMBL document CHEMBL1201862, “PubChem BioAssay data set” (2004)
Calls of active or inactive are those of the source.

How the values were obtained:
[1] = Luminescence Cell-Based Dose Confirmation HTS to Identify Activators of 5'UTR Stem-Loop Driven Alpha-Synuclein mRNA Translation in H4 Neuroglioblastoma Cells. [Related pubchem assays: 1829 (Project Summary), 1814 (Primary HTS)]; type: functional
[2] = Luminescence Cell-Based Dose Response HTS to Identify Activators of Luciferase Translation or Activity in H4 […] Cells. [Related pubchem assays: 1829 (Project Summary), 1814 (Primary HTS)]; type: functional
H4 = assay: Luminescence Cell-Based Dose Response HTS to Identify Activators of 5'UTR Stem-Loop Driven Prion Protein mRNA Translation in H4 Neuroglioblastoma Cells. [Related pubchem assays: 1829 (Project Summary), 1814 (Primary HTS)]; type: functional; conditions: Homo sapiens
[3] = THP-1 cell cytotoxicity, dose response, cytotoxicity control for non-replicating M. tuberculosis project (AID 489025); type: functional
cells [4] = type: functional
cells [5] = type: functional, cell-based
cells [6] = type: functional, cell-based; remark: listed apart in the source
INS1 = assay: INS-1E survival protection against cytokine death – cell-based, luminescence, retest, dose response (AID 449756); type: functional; conditions: Rattus norvegicus, INS1;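 note: cell death triggered by IL-1 beta plus TNF-alpha plus IFN-gamma mixture; protective hits raise ATP signal compared with cytokine alone wells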
Bcl-2-related protein A1 = biological target: T1, Bcl-2-related protein A1 (Mus musculus, UniProt Q07440); type: functional;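 note: confirmatory dose–response counterscreen on Bfl-1, used to check hits from a UBC13 polyubiquitin inhibitor campaign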
T1 sequence (Q07440 whole entry): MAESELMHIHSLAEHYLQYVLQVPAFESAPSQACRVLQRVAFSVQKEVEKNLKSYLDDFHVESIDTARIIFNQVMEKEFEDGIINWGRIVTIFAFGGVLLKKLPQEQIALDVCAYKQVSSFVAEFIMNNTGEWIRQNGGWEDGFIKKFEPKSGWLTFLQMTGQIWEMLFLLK

[7] = biological target: T2, Ubiquitin-conjugating enzyme E2 N (Homo sapiens, UniProt P61088); type: functional;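 note: Dose-response confirmation in a TR-FRET assay detecting UBC13-driven polyubiquitin chain formation, inhibition measured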
T2 sequence (P61088 whole entry): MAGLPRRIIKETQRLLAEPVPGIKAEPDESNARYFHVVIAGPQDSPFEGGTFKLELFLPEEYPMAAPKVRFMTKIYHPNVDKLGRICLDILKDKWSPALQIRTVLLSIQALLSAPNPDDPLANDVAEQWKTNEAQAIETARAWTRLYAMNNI

[8] = biological target: T3, Rac GTPase-activating protein 1 (Homo sapiens, UniProt Q9H0H5); assay: blockers of MgcRacGAP-driven Rac1 GTP hydrolysis – biochemical, ADP Hunter fluorescence, primary and confirmatory, confirmation (AID 624330); type: functional
T3 sequence (Q9H0H5 whole entry): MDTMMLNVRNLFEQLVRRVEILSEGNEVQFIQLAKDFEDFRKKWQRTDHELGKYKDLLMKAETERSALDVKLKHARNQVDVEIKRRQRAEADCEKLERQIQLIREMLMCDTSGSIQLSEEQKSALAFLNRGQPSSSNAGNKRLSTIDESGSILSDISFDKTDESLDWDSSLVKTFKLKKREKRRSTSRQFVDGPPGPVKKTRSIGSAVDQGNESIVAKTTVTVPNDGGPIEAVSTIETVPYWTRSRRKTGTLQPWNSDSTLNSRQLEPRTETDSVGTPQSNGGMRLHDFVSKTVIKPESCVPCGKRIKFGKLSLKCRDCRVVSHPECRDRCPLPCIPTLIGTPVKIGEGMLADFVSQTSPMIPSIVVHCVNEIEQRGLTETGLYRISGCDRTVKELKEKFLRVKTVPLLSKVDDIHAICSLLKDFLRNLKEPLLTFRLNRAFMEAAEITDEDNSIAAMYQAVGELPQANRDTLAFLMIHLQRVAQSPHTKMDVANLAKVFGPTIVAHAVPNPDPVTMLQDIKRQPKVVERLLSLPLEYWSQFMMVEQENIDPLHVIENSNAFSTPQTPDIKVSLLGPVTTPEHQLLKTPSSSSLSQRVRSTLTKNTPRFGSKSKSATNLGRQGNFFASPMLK

[9] = A Cell Based Secondary Assay To Explore Cytotoxicity of Compounds that Sensitize Mycobacterium Tuberculosis to Beta-Lactam Antibiotics.; type: functional
[10] = Trypanosoma cruzi growth suppression in host cells – NIH3T3 host cells, beta-gal luminescence, confirmation (AID 2044); type: functional, cell-based;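 note: intracellular parasites grown in NIH/3T3 mouse fibroblasts as host cells; luminescent beta-galactosidase reporter signal from transgenic T. cruzi replicating inside host cells; inhibitors lower the luminescence signal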
[11] = NIH3T3 cell viability loss – ATP luminescence, mouse fibroblasts, counter-screen, dose response (AID 2010); type: functional, cell-based;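 note: cells exposed to compound for about 90 hours before reading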
[12] = biological target: T4, Microphthalmia-associated transcription factor (Homo sapiens, UniProt O75030); assay: reducers of TRPM1 reporter luminescence, concentration series – cell-based, SK-MEL-5, cherry-picked, set 3, MITF inhibitor project, dose response (AID 493073); type: functional;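 note: SK-MEL-5 melanoma cells with luciferase driven by the MITF target TRPM1 promoter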
T4 sequence (O75030 whole entry): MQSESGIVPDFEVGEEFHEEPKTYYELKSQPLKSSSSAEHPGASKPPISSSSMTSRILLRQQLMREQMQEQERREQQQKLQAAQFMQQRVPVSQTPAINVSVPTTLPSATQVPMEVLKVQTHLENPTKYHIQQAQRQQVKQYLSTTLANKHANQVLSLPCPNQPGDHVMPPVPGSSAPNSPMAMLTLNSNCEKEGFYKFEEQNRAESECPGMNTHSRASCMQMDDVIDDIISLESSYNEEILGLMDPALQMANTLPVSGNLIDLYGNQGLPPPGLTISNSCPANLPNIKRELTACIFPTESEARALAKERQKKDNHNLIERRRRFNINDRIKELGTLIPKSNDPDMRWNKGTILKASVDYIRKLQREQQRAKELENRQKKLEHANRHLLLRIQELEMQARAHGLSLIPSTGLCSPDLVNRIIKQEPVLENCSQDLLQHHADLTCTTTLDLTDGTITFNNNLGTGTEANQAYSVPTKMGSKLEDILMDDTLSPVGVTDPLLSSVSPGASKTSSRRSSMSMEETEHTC

[13] = biological target: DNA damage-inducible transcript 3 protein (Mus musculus, UniProt P35639); type: functional, Cricetulus griseus
DNA damage-inducible transcript 3 protein, sequence (P35639 whole entry): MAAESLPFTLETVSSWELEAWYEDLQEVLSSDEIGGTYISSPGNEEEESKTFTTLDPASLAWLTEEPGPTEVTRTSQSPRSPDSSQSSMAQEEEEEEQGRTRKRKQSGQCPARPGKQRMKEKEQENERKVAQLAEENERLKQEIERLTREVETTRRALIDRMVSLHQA

[14] = test system: Streptococcus sp. 'group A'; assay: Streptococcus pyogenes SK(-)GAS viability under kanamycin – luminescence, BacTiterGlo, confirmation, counter-screen for streptokinase expression inhibitor project, dose response (AID 1900); type: functional, organism-based
Streptokinase A = biological target: T5, Streptokinase A (Streptococcus pyogenes serotype M1, UniProt P10520); assay: viability-normalized secreted streptokinase activity reduction – plasminogen activation absorbance, OD405, dose response (AID 1914); type: functional, Streptococcus pyogenes M1 GAS;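 note: secreted streptokinase activity via plasminogen activation per viability signal from cell pellet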
T5 sequence (P10520 whole entry): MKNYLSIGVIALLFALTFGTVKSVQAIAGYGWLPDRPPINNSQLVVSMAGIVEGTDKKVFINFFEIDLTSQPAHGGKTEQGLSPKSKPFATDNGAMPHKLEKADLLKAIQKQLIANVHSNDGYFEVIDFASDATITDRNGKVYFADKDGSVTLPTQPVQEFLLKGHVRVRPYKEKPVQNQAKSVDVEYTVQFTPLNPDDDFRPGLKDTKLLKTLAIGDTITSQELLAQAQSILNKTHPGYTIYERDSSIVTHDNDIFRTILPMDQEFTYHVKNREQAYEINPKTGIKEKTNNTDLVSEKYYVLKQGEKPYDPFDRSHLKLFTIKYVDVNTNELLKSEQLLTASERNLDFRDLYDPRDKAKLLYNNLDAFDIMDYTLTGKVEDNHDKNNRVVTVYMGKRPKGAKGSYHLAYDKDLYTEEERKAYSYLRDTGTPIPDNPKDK

[15] = microbe, parasite or virus in culture; type: functional; conditions: Mycobacterium tuberculosis
Streptococcus = assay: GAS UMAA2166 growth inhibition – luminescence, BacTiterGlo, counter-screen for streptokinase expression inhibitor project, dose response (AID 1915); type: functional, organism-based;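 note: potency for reduction of bacterial viability or growth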

CCc1ccc(N2NC(=O)/C(=C/C=C/c3ccco3)C2=O)cc1
EC50 [1]: 14.8 µM (active)
EC50 [2]: 48 µM (active)
EC50 (H4): 14.3 µM (active)
CC50 [3]: > 40 µM (active)
IC50 (cells [4]): 12.1 µM (active)

COc1cccc(CN2CCC(N(CCc3ccccc3)Cc3ccccc3)CC2)c1OC
EC50 (cells [5]): > 350 µM (not active)
EC50 (cells [6]): > 350 µM (not active)
CC50 [3]: > 40 µM (active)
IC50 (cells [4]): 25.2 µM (active)
AC50 (INS1): 11.4 µM (active)

C#CCOCCOCCOCCNc1nc(N2CCN(C(=O)C([C@@H](C)O)n3cc([C@@H](N)CCCCN)nn3)CC2)nc(N2CCN(C(=O)[C@H](CCCCN)n3cc(CN)nn3)CC2)n1 (stereo not given in full)
IC50 (Bcl-2-related protein A1): > 20 µM (inactive)
IC50 [7]: 3.7 µM (active)
IC50 [8]: 171 µM (active)

COc1ccc(NC(C)C(=O)N/N=C/c2ccc([N+](=O)[O-])s2)cc1 (stereo not given)
CC50 [9]: 21.8 µM (active)
EC50 [10]: 0.414 µM (active)
EC50 [11]: > 60 µM (inconclusive)
AC50 [12]: 15.8 µM (active)

CCOc1ccc2nc(NC(=O)CSc3nnnn3C3CCCCC3)sc2c1
EC50 [10]: 2.14 µM (active)
EC50 [11]: > 30 µM (not active)
Absolute IC50 (CHOP) [13]: 10 µM

CCOC(=O)c1sc2ccccc2c1NC(=O)c1coc2ccccc2c1=O
EC50 [1]: > 120 µM (not active)
EC50 [2]: 16.9 µM (active)
CC50 [9]: > 40 µM (active)
EC50 (H4): > 120 µM (not active)

Cc1cc(N2CCC(C)CC2)nc(-n2nc(C)cc2C)n1
EC50 [14]: 7.26 µM (active)
EC50 (Streptokinase A): > 150 µM (not active)
CC50 [15]: > 40 µM (active)
EC50 (Streptococcus): > 150 µM (not active)
CC50 [3]: > 40 µM (active)
IC50 (cells [4]): 0.15 µM (active)
